Measured values published in patent publication US4252804A, “Therapeutically useful 3,4,5-trimethoxybenzene derivatives” (Metabio-Joullie, priority 1977, dated 1981).

Assay: Acute toxicity for oral administration in mice
Type: in vivo
Conditions: mouse, in vivo, po, suspension in 10% gum arabic
Procedure: 1--ACUTE TOXICITY FOR ORAL ADMINISTRATION IN MICE
The compounds are administered orally in increasing doses in suspension in a 10% gum arabic solution to groups of 5 .female. mice of mean weight 25 g. The 50% lethal doses (LD 50) are calculated by the method of KARBER and BEHRENS (Arch. Exp. Path. Pharmakol. 1935, 177, 379-388).
The LD 50's found are summarised in Table IV below and indicate that the tested compounds have low toxicity.
With `COc1cc(NCC(=O)N2CCOc3ccc(Cl)cc32)cc(OC)c1OC` [compound 762] the LD50 was > 5000 mg/kg. For `COc1cc(NC(=O)N2CCC(O)CC2)cc(OC)c1OC` [compound 814], the LD50 was 5000 mg/kg. With `COc1cc(NC(=O)Nc2ccnc3cc(Cl)ccc23)cc(OC)c1OC` [compound 777] the LD50 was > 5000 mg/kg. With `COc1cc(NC(=O)CN2CCN(CC(=O)Nc3cc(OC)c(OC)c(OC)c3)CC2)cc(OC)c1OC` [compound 848] the LD50 was > 5000 mg/kg. For `COc1cc(NC(=O)NC(=O)CN2CCOCC2)cc(OC)c1OC` [compound 834], the LD50 was 3380 mg/kg. `COc1cc(NC(=O)N(C)CCCN(C)C)cc(OC)c1OC` [compound 805] showed an LD50 of 2500 mg/kg. In the case of `COc1cc(NC(=O)NCCc2ccccc2)cc(OC)c1OC` [compound 783], the LD50 was > 5000 mg/kg. With `COc1cc(NCC(=O)N2CCN(c3ccccc3)CC2)cc(OC)c1OC` [compound 837] the LD50 was > 5000 mg/kg. With `COc1cc(NC(=O)N2CCN(C(=O)Nc3cc(OC)c(OC)c(OC)c3)CC2)cc(OC)c1OC` [compound 840] the LD50 was > 5000 mg/kg. In the case of `COc1cc(NC(=O)NCCCN(C)C)cc(OC)c1OC` [compound 785], the LD50 was 2200 mg/kg. For `COc1cc(NC(=O)CCN2CCN(c3cccc(C(F)(F)F)c3)CC2)cc(OC)c1OC` [compound 841], the LD50 was > 5000 mg/kg. In the case of `COc1cc(NC(=O)N2CCOc3ccccc32)cc(OC)c1OC` [compound 774], the LD50 was > 5000 mg/kg. With `C=C(C)CNC(=O)Nc1cc(OC)c(OC)c(OC)c1` [compound 812] the LD50 was 2000 mg/kg. `COc1cc(NC(=O)N2CCCCCC2)cc(OC)c1OC` [compound 813] showed an LD50 of 3000 mg/kg. With `COc1cc(NC(=O)CN2CCN(c3cccc(C(F)(F)F)c3)CC2)cc(OC)c1OC` [compound 838] the LD50 was > 5000 mg/kg. In the case of `COc1cc(NC(=O)NCCc2ccc(Cl)cc2)cc(OC)c1OC` [compound 796], the LD50 was > 5000 mg/kg. With `COc1cc(NC(=O)NCC2CCCCO2)cc(OC)c1OC` (centres unmarked) [compound 815] the LD50 was 5000 mg/kg. In the case of `COc1cc(NCC(=O)N2CCOc3ccccc32)cc(OC)c1OC` [compound 782], the LD50 was > 5000 mg/kg. With `COc1cc(NC(=O)NC(C)CN(C)C)cc(OC)c1OC` (centres unmarked) [compound 784] the LD50 was 3380 mg/kg. `COc1cc(NC(=O)NCC2CCCO2)cc(OC)c1OC` (centres unmarked) [compound 797] gave an LD50 of 4400 mg/kg. With `COc1cc(NC(=O)N2CCOc3ccc(Cl)cc32)cc(OC)c1OC` [compound 770] the LD50 was > 5000 mg/kg. For `COc1cc(NC(=O)CN2CCOc3ccccc32)cc(OC)c1OC` [compound 792], the LD50 was > 5000 mg/kg. `COc1cc(NC(=O)N2CCN(CC(=O)N3CCCCC3)CC2)cc(OC)c1OC` [compound 830] gave an LD50 of 5000 mg/kg. For `COc1cc(NC(=O)N2CCN(C(c3ccccc3)c3ccc(Cl)cc3)CC2)cc(OC)c1OC` (centres unmarked) [compound 795], the LD50 was > 5000 mg/kg. For `COc1cc(NC(=O)NC2CCCCC2)cc(OC)c1OC` [compound 778], the LD50 was > 5000 mg/kg. In the case of `COc1cc(N(CCN2CCOCC2)C(=O)N2CCOCC2)cc(OC)c1OC` [compound 822], the LD50 was 5000 mg/kg. With `COc1cc(NC(=O)N(C)C2CCCCC2)cc(OC)c1OC` [compound 802] the LD50 was > 5000 mg/kg. `COc1cc(NCC(=O)N2CCOCC2)cc(OC)c1OC` [compound 793] showed an LD50 of 1250 mg/kg. For `COc1cc(N(Cc2ccccc2)C(=O)N2CCOCC2)cc(OC)c1OC` [compound 821], the LD50 was 2500 mg/kg. In the case of `CCCCN(CCCC)C(=O)Nc1cc(OC)c(OC)c(OC)c1` [compound 780], the LD50 was > 5000 mg/kg. For `COc1cc(NC(=O)NC2CCCCCC2)cc(OC)c1OC` [compound 799], the LD50 was > 5000 mg/kg. `COc1cc(NC(=O)N2CCOC(C)C2)cc(OC)c1OC` (centres unmarked) [compound 816] gave an LD50 of 2500 mg/kg. With `COc1cc(NC(=O)NC2CCCC2)cc(OC)c1OC` [compound 800] the LD50 was > 5000 mg/kg. For `COc1cc(NC(=O)NC2CCCCCCC2)cc(OC)c1OC` [compound 781], the LD50 was > 5000 mg/kg.

Same assay, conditions: mouse, in vivo, suspension in 10% gum arabic
For `COc1cc(NC(=O)ON2CCOCC2)cc(OC)c1OC` [compound 828], the LD50 was > 5000 mg/kg. For `COc1cc(NC(=O)CCN2CCC(O)(c3ccc(Cl)cc3)CC2)cc(OC)c1OC` [compound 829], the LD50 was > 5000 mg/kg. In the case of `COc1cc(OC(=O)N2CCOc3ccccc32)cc(OC)c1OC` [compound 773], the LD50 was > 5000 mg/kg. With `COc1cc(OC(=O)N2CCN(C)CC2)cc(OC)c1OC` [compound 767] the LD50 was 1020 mg/kg.
